Active and inactive are the calls of the source.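 How the source made its calls: active means fitted curve falls past a set limit of signal loss at no more than twice the top dose; inconclusive means flat fit between 30 and 70% signal loss, or poor fit; inactive means signal rise, flat within 30%, or crossing too high.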

The first experiment can be described thus: HEK293T cell cytotoxicity, dose response, cytotoxicity control, CellTiter-Glo luminescence, cherry-pick, set 3 (AID 720588). To be noted: HEK293T viability, CellTiter-Glo ATP luminescence, 72 h; at 23.5 µM (top of the series). (In general: ATP-based viability assays read luminescence as a measure of living cells.)
Take `COc1ccccc1NC(=O)N1[C@@H]2CNC[C@H]1[C@@H]2c1ccc(-c2ccc(C#N)cc2)cc1`: the activity change, negative = cytotoxicity is -30.3% (inactive). As to `CCCNC(=O)N1[C@H](C#N)[C@H](c2ccc(C#Cc3cccc(F)c3)cc2)[C@H]1CO`, the activity change, negative = cytotoxicity is -0.501% (inactive).

For `O=S(=O)(c1ccc(F)cc1)N1C[C@H]2[C@@H](c3ccccc31)[C@H](CO)N2Cc1ccccc1Cl`, the activity change, negative = cytotoxicity was -5.62% (inactive). `N#C[C@H]1N[C@H](CO)[C@H]1c1ccc(C#Cc2ccccc2F)cc1`: the activity change, negative = cytotoxicity was -11.8% (inactive).

The same experiment, now with this note: HEK293T viability, CellTiter-Glo ATP luminescence, 72 h; at 26 µM (top of the series).
On to `COc1ccc(C2=Nn3c(nnc3-c3ccccc3F)SC2)cc1OC1CCOC1` (configuration not stated), for which the activity change, negative = cytotoxicity was -7.39% (inactive). On the same count and under the same terms, with `CCN(CC)c1ccc(C2NC(=O)c3ccccc3N2)cc1` (configuration not stated) the figure was -18.3% (inactive); with `O=C(O)c1cccc(N/N=C/c2cccs2)c1`, -19.1% (inactive); with `CC(C)(C)c1ccc(Oc2ccc(N)cn2)cc1`, -15.7% (inactive). The same measure, in the same setting: the value for `N#C[C@H]1N[C@H](CO)[C@H]1c1ccc(C#Cc2ccc(F)cc2)cc1` was -13% (inactive); that for `Cc1[nH][nH]c(=O)c1C(c1c(C)[nH][nH]c1=O)c1cn(Cc2ccc(Cl)c(Cl)c2)c2ccccc12` was -16% (inactive). As to `CCCNC(=O)[C@@H]1[C@@H](CO)[C@@H]2Cn3c(ccc(-c4ccccc4)c3=O)[C@H]1N2C(=O)CC`, the activity change, negative = cytotoxicity was 22.7% (inactive). For `COc1ccc2oc(-c3ccccc3)cc(=O)c2c1`, the activity change, negative = cytotoxicity was -22.5% (inactive). Same read-out and setting: the value for `COc1ccc(C(CCNCc2ccc(OC(C)C)cc2)C(C)C)cc1` (configuration not stated) was -12.5% (inactive). Regarding `CCCn1c(C)cc(C(=O)CN2C(=O)c3ccccc3S2(=O)=O)c1C`, the activity change, negative = cytotoxicity was 4.1% (inactive). On the same count and under the same terms, the value for `O=c1[nH]c(/C=C2\C=Nc3ccccc32)c(O)n1Cc1ccccc1F` was -17.6% (inactive); that for `O=C(/C=C/c1ccc(Cl)cc1Cl)N(Cc1ccc(Cl)cc1)C1CCS(=O)(=O)C1` (configuration not stated) was -14.5% (inactive); that for `COc1cc2oc3cc(C#Cc4ccc(N)cc4)ccc3c(=O)c2cc1OC` was -4.88% (inactive). On the same count and under the same terms, the value for `COc1ccc(C2=Nn3c([n+](C)c4ccccc43)SC2)cc1` was -33.2% (inactive); that for `CCn1c(/C=N/NC(=O)c2ccc(OC)cc2)nc2ccccc21` was -10.9% (inactive).

With `Nc1cc2c(cc1Br)[nH]c(=O)c1ccccc12`, the activity change, negative = cytotoxicity was 17.5% (inactive). As to `C[C@@H]1CN([C@@H](C)CO)C(=O)Cc2cc(NC(=O)Cn3cnnn3)ccc2O[C@@H]1CN(C)Cc1ccc(Oc2ccccc2)cc1`, the activity change, negative = cytotoxicity is 14.3% (inactive). In the case of `O=C(NCCc1ccccc1)c1ccccc1NC(=O)C1CCCO1` (configuration not stated), the activity change, negative = cytotoxicity is 5.83% (inactive). Still for that read-out and setting: with `O=c1[nH]c(=O)n(C2C[C@H](O)[C@@H](CO)O2)cc1C(F)(F)F` (some centres not stated) the figure was -9.97% (inactive). For the molecule `COc1ccc(Nc2oc(COc3ccccc3OC)nc2C#N)cc1`, the activity change, negative = cytotoxicity is -13.8% (inactive).

Consider `COC(=O)C[C@@H]1CC[C@@H]2[C@H](COc3ccc(NC(=O)Nc4ccc(C#N)cc4)cc3C(=O)N2C)O1`, for which the activity change, negative = cytotoxicity is 46.8% (inactive). For the molecule `COc1ccc2cc(C(N)=O)/c(=N\NC(=O)c3ccccc3)oc2c1`, the activity change, negative = cytotoxicity was -13.7% (inactive). The same measure, in the same setting: with `CCCCN=C(NNc1ccc(Br)cc1)C(=O)OCC` the figure was -39.4% (inactive); with `CN=c1scc(-c2ccccc2F)n1/N=C/c1ccc(O)c(O)c1O`, -25.3% (inactive). The same measure, in the same setting: with `O=C(N/N=C/c1ccc[nH]1)c1cc(-c2ccc(Cl)cc2)nc2ccccc12` the figure was -26.6% (inactive); with `COc1ccccc1/C=C1\SC(=S)N(CCC(=O)Nc2cc(C)on2)C1=O`, 8.14% (inactive); with `CC(=NNc1ccc2ccccc2n1)c1ccccc1O`, -9.29% (inactive). On the same count and under the same terms, with `C[C@@H]1CN([C@H](C)CO)S(=O)(=O)c2ccc(C#CC3CC3)cc2O[C@@H]1CN(C)Cc1ccccc1F` the figure was -30.1% (inactive); with `CC(=O)Nc1cccc(-c2ccnc3c2CC(C)(C(=O)NCc2ccc(N(C)C)cc2)O3)c1` (configuration not stated), -10.9% (inactive); with `Cc1cc(C(=O)NNC(=O)c2ccc(S(=O)(=O)N(C)C)cc2)c(C)o1`, -12.5% (inactive).

For `COc1ccc(/C=C/C(=O)c2cc(F)ccc2OC(=O)c2ccccc2OC)cc1OC`, the activity change, negative = cytotoxicity is -12.6% (inactive).

Consider `CC(C)(C)c1ccc(Oc2ccc(NC(=O)C3CC=CCC3C(=O)O)cc2)cc1` (configuration not stated), for which the activity change, negative = cytotoxicity was -16.1% (inactive). On the same count and under the same terms, with `Nc1ccn([C@@H]2O[C@H](CO)[C@@H](O)C2O)c(=O)n1` (some centres not stated) the figure was -12.5% (inactive); with `O=C1c2ccccc2C(=O)N1CCCCNc1ccccc1`, 4.32% (inactive); with `Cc1cc(C)cc(C(=O)NC(=S)Nc2ccc(Cc3ccncc3)cc2)c1`, -25.9% (inactive).

`CC(C)(C)c1ccc(Cn2c(=O)cnc3ccccc32)cc1`: the activity change, negative = cytotoxicity is -33.1% (inactive). For `Nc1ccc2oc(-c3cc(Br)ccc3Cl)nc2c1`, the activity change, negative = cytotoxicity was 19.3% (inactive). Same read-out and setting: with `COc1ccc(C=NNc2nc3ccccc3s2)cc1` the figure was -21.8% (inactive); with `C[C@H]1CN([C@@H](C)CO)C(=O)Cc2cc(NC(=O)C3CC3)ccc2O[C@H]1CN(C)S(=O)(=O)c1ccc(Cl)cc1`, -9.99% (inactive); with `C[C@@H]1CN([C@@H](C)CO)C(=O)c2cc(NS(=O)(=O)c3ccccc3)ccc2O[C@@H]1CN(C)Cc1ccc(C(=O)Nc2ccccc2N)cc1`, -19.2% (inactive). On to `Nc1ccc(-c2cc3ccccc3oc2=O)cc1`, for which the activity change, negative = cytotoxicity is -22% (inactive). Turning to `CC(=O)c1ccc(N=C2C(=O)Nc3ccccc32)cc1`, the activity change, negative = cytotoxicity was -11.5% (inactive). Turning to `C[C@@H]1CN([C@H](C)CO)C(=O)c2cc(C#CCc3ccccc3)cnc2O[C@@H]1CN(C)Cc1cccc(F)c1`, the activity change, negative = cytotoxicity was -3.37% (inactive). Still for that read-out and setting: the value for `Cc1ccc(C(C(=O)NCc2ccco2)N(C(=O)CNC(=O)c2cccs2)c2c(C)cc(C)cc2C)cc1` (configuration not stated) was -19.4% (inactive); that for `C[C@H](CO)N1C[C@H](C)[C@H](CN(C)Cc2ccc(C(=O)Nc3ccccc3N)cc2)Oc2ccc(NS(=O)(=O)c3cccs3)cc2C1=O` was -25.3% (inactive). `O=C(Nc1cccc(Oc2ccc3c(c2)C(=O)NC3=O)c1)c1cccs1`: the activity change, negative = cytotoxicity was -22.5% (inactive).

On to `Cc1ccsc1/C=N/Nc1ccc(C(=O)O)cc1`, for which the activity change, negative = cytotoxicity is -12.7% (inactive). Take `CCc1ccc(/C=C2\SC(=S)N(CCCC(=O)Nc3cc(C)on3)C2=O)cc1`: the activity change, negative = cytotoxicity is -27.1% (inactive). Consider `CCOc1ccc(NC(=O)C(=O)N/N=C\c2ccc(CNS(=O)(=O)c3ccccc3)o2)cc1`, for which the activity change, negative = cytotoxicity is -24.2% (inactive). For `Oc1c(Cl)cc(Cl)c2cccnc12`, the activity change, negative = cytotoxicity was -45.5% (inactive). The same measure, in the same setting: the value for `COc1ccc(C(=O)NCCNc2nc3cc(C)cc(C)c3cc2C#N)c(OC)c1` was -16.7% (inactive); that for `COc1ccc(/C=C2\Oc3ccccc3C2=O)cc1` was 7.88% (inactive); that for `COC(=O)C[C@H]1C=C[C@@H](NC(=O)Nc2ccc(C(F)(F)F)cc2)[C@H](CO)O1` was 4.22% (inactive). On to `COCCOC(=O)N1C(=O)[C@@]2(c3cc(C#CCC(C(=O)OC)C(=O)OC)ccc31)[C@H](c1ccccc1OCCO)N1[C@H](c3ccccc3)[C@H](c3ccccc3)OC(=O)[C@H]1[C@@H]2C(=O)N1CCN(c2ncccn2)CC1`, for which the activity change, negative = cytotoxicity was 28.9% (inactive). `COc1cc(/C=C/C(=O)CC(=O)/C=C/c2ccc(O)c(OC)c2)ccc1O`: the activity change, negative = cytotoxicity is -41.3% (inactive).

`O=C(Nc1ccc(NC(=O)c2cc3ccccc3o2)cc1)c1ccc2c(c1)OCCO2`: the activity change, negative = cytotoxicity is 7.63% (inactive). Same read-out and setting: the value for `C/C=C/c1ccc(C2[C@@H]3CN(C(=O)Cc4ccccc4)C[C@H]2N3)cc1` (some centres not stated) was 18% (inactive). Same read-out and setting: the value for `COc1ccc(/C=C2\SC(=S)N(CCCC(=O)Nc3ccc(O)cc3)C2=O)cc1` was -27.6% (inactive).

Turning to `CCNC(=O)[C@@H]1[C@@H](CO)[C@@H]2Cn3c(ccc(C4=CCCCC4)c3=O)[C@H]1N2CC`, the activity change, negative = cytotoxicity was -16.5% (inactive).

`COC(=O)c1c(C)[nH]c(/C=N/Nc2ccccc2)c1C`: the activity change, negative = cytotoxicity was -4.63% (inactive). With `O=C(O)c1cccc(N/N=C/c2ccc(OC(F)(F)F)cc2)c1`, the activity change, negative = cytotoxicity is 11.3% (inactive). With `CC(C)CN(C(=O)CN1CCOCC1)c1c(N)n(CC(C)C)c(=O)[nH]c1=O`, the activity change, negative = cytotoxicity is 6.36% (inactive). On the same count and under the same terms, the value for `O=C(N/N=C/c1cnc(N2CCCCC2)s1)c1ccc(C(F)(F)F)cc1` was -9.42% (inactive).

Consider `O=C1C(=O)N(CCS(=O)(=O)c2ccccc2)c2ccccc21`, for which the activity change, negative = cytotoxicity is 17.1% (inactive). Still for that read-out and setting: the value for `Cc1ccccc1N=Nc1c(O)n(C)c2ccccc12` was 2.96% (inactive).

For `COc1cccc(OC)c1C(=O)Nc1cc(C)nn1-c1nc2ccccc2[nH]1`, the activity change, negative = cytotoxicity was -11.9% (inactive). Still for that read-out and setting: with `CN(C)c1ccc(N=Nc2ccc(C(=O)O)cc2)cc1` the figure was -1.83% (inactive); with `CCc1ccc(/C=C2\SC(=S)N(CCCC(=O)NCCCN3CCOCC3)C2=O)cc1`, -13.1% (inactive).

The record behind these values is PubChem BioAssay AID720588 (Broad Institute, 2013).
